Data on 92 compounds can be found in PubChem BioAssay AID463203 (Broad Institute, 2010).

Activity calls are given as the source filed them.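 The calls were made as follows: active = more than half of replicate measurements showing over 20% loss of kinase signal relative to plate controls; inconclusive = some but at most half of replicates over 20% loss; inactive = no replicate over 20% signal loss.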

The target of the experiment is Glycogen synthase kinase-3 alpha (Homo sapiens) (UniProt P49840). Nature of the experiment: concentration-response blocking of human GSK3A – biochemical, luminescence, cell-free homogeneous, retest, dose response (AID 463203). The settings on record: GSK-3 alpha enzyme, ADP-Glo luminescence, 60 min.
Sequence of Glycogen synthase kinase-3 alpha (Homo sapiens) (P49840 whole entry, looked up): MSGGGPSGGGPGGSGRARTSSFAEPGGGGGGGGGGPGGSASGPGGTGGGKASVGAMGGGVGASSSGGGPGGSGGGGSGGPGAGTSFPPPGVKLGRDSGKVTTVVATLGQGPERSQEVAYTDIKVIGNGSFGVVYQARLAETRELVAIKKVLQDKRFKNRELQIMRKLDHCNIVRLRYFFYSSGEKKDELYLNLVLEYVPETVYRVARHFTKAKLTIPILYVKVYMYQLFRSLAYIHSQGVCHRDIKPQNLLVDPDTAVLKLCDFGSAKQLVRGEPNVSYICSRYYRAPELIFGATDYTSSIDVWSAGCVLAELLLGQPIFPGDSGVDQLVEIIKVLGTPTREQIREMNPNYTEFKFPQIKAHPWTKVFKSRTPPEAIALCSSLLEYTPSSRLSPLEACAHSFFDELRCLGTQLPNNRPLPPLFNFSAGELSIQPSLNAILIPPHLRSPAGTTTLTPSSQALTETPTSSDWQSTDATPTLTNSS
Regarding `COc1ccc2ccccc2c1C1CC(=O)N2CN(Cc3ccco3)CSC2=C1C#N` (configuration not stated), the AC50 is > 30 µM (inactive).

As to `Nc1ncnc2nc(SCc3ccc(Cl)cc3Cl)[nH]c12`, the AC50 was > 30 µM (inactive).

Take `CCOC(=O)C1CCN(c2c(C(=O)c3ccccc3)cnc3ccc(Cl)cc23)CC1`: the AC50 is > 30 µM (inactive).

In the case of `O=C(c1ccccc1)c1cnc(Nc2ccccc2Cl)s1`, the AC50 is > 30 µM (inactive).

As to `CS(=O)(=O)N1CCN(c2ccccc2NC(=O)c2cccs2)CC1`, the AC50 was > 30 µM (inactive).

For `Cc1cc(C)c(NC(=O)C2CCCN2CCOC(=O)c2cccc([N+](=O)[O-])c2)c(C)c1` (configuration not stated), the AC50 is 13.6 µM.

Regarding `CCCCc1ccc(NC(=O)N[C@H](C(=O)O)C(C)C)cc1`, the AC50 is > 30 µM (inactive).

For `COc1cc(/C=N/n2nnnc2N)ccc1OCC#N`, the AC50 is > 30 µM (inactive).

On to `COc1ccc(C(=O)c2sc3nc(-c4ccc(OC)cc4)ccc3c2N)cc1`, for which the AC50 was > 30 µM (inactive).

Take `O=c1cc(-c2ccc(O)cc2)oc2c1ccc1ccccc12`: the AC50 was 1.33 µM.

As to `COc1cccc(NC(=O)[C@@H]2CCCN2S(=O)(=O)c2cccc3cccnc23)c1`, the AC50 was 18.1 µM.

For the compound `CN(C)C=NC(=O)/C(C#N)=C/c1ccccc1`, the AC50 is > 30 µM (inactive).

As for `CCc1nnc(NC(=O)CCN2C(=O)c3ccccc3C2=O)s1`, the AC50 was > 30 µM (inactive).

Regarding `CCOC(=O)c1c(NC(=O)CN2C(=O)NC3(CCCCC3C)C2=O)sc(C)c1C` (configuration not stated), the AC50 is > 30 µM (inactive).

For the compound `CCn1c(SCC(=O)N/N=C/c2cccs2)nc2ccccc21`, the AC50 is > 30 µM (inactive).

Consider `Cc1cccc2c(N=Nc3ccccc3)c(O)[nH]c12`, for which the AC50 was > 30 µM (inactive).

Take `Cc1c(C(=O)OC2CCCCC2)[nH]c2c1C(=O)CC(C)(C)C2`: the AC50 was > 30 µM (inactive).

On to `CC1=C(C(=O)OC(C)C)C(c2cccc(F)c2)n2ncnc2N1` (configuration not stated), for which the AC50 was > 30 µM (inactive).

For the compound `N#Cc1c(-c2ccncc2)c2c([nH]c1=O)-c1ccccc1OC2`, the AC50 was > 30 µM (inactive).

In the case of `CCCCc1cc(=O)oc2cc(O)ccc12`, the AC50 was 25.9 µM.

For the compound `COC(=O)C1=C(C)Nc2[nH]c(=S)[nH]c(=O)c2C1c1ccc(O)cc1` (configuration not stated), the AC50 was > 30 µM (inactive).

Consider `O=C1OCCC1Sc1nnc(-c2ccc3c(c2)OCO3)o1` (configuration not stated), for which the AC50 was 25.9 µM.

`COc1ccc(/C=N\NC(=O)c2ccccc2Br)cc1COc1ccccc1`: the AC50 was > 30 µM (inactive).

Consider `COc1cccc(-n2c(SCC(N)=O)nnc2-c2ccco2)c1`, for which the AC50 is > 30 µM (inactive).

With `Cc1ccnc(NC(=O)CCC(=O)N(CC(=O)NCc2ccccc2)Cc2ccccc2)c1`, the AC50 is 15.1 µM.

As for `C[C@H](CO)N1C[C@H](C)[C@@H](CN(C)S(=O)(=O)c2cccs2)Oc2c(NS(=O)(=O)c3ccc(F)cc3)cccc2C1=O`, the AC50 is > 30 µM (inactive).

Regarding `CN(C)/C=C/c1[nH]c(=O)[nH]c(=O)c1[N+](=O)[O-]`, the AC50 was > 30 µM (inactive).

On to `COc1cc(C2CC(=O)Nc3n[nH]c(-c4ccccc4)c32)cc(OC)c1OC` (configuration not stated), for which the AC50 was > 30 µM (inactive).

On to `CCOC(=O)Cc1c[nH]c2ccccc12`, for which the AC50 is > 30 µM (inactive).

With `COc1cccc(Nc2nc(N)c([N+](=O)[O-])c(NCc3ccco3)n2)c1`, the AC50 was 5.75 µM.

In the case of `CN1C(=O)N(C)C2(c3ccccc3)Nn3c(s/c(=C/c4ccccc4)c3=O)=NC12c1ccccc1` (configuration not stated), the AC50 was > 30 µM (inactive).

As for `COc1cc(/C=C2\Oc3ccc(C#Cc4ccc(O)cc4)cc3C2=O)cc(OC)c1`, the AC50 is > 30 µM (inactive).

For the compound `CSc1ccc(/C=N/NC(=O)c2ccccc2Cl)cc1`, the AC50 is > 30 µM (inactive).

`CCc1c(C)c(C#N)c2nc3ccccc3n2c1NC`: the AC50 was > 30 µM (inactive).

Consider `O=C(NC1CCCC1)c1cccc(NC(=O)c2ccco2)c1`, for which the AC50 was > 30 µM (inactive).

In the case of `CC(=O)C1C(c2ccc(C)cc2)c2c(n[nH]c2C)CC1(C)O` (configuration not stated), the AC50 was > 30 µM (inactive).

Turning to `CCOC(=O)C1CCCN(c2c(C(=O)c3ccccc3)cnc3ccccc23)C1` (configuration not stated), the AC50 is > 30 µM (inactive).

In the case of `COc1ccc(N=Cc2c(O)[nH]c3ccccc23)cc1`, the AC50 is 19.8 µM.

With `NCCNc1ccc([N+](=O)[O-])c(NC2CC2)c1`, the AC50 is > 30 µM (inactive).

On to `Cc1nc2c(C)cccn2c1/C(O)=C1\C(=O)C(=O)N(CCN2CCOCC2)C1c1cccs1` (configuration not stated), for which the AC50 is > 30 µM (inactive).

For the compound `O=C(Nc1nc2c(s1)CCCC2)c1ccc(Br)o1`, the AC50 is > 30 µM (inactive).

As to `O=C(Nc1cccc(O)c1)c1ccc([N+](=O)[O-])cc1Cl`, the AC50 was > 30 µM (inactive).

As for `Cc1ccc2c(c1)N(CCC(=O)NC(C)C)C(=O)CO2`, the AC50 was > 30 µM (inactive).

On to `COc1ccc(N=Cc2c(O)[nH]c3ccccc23)cc1OC`, for which the AC50 was 20.3 µM.

As to `Cc1cc(N/N=C/c2ccccc2Br)nc2ccccc12`, the AC50 is > 30 µM (inactive).

In the case of `Cc1nc(NCCc2ccccc2)c(C#N)c(C)c1[N+](=O)[O-]`, the AC50 was > 30 µM (inactive).

On to `CCOC(=O)c1[nH]c2c(c1-c1ccccc1)C(=O)CC(c1ccccc1)C2` (configuration not stated), for which the AC50 was > 30 µM (inactive).

`COc1cc(/C=N/Nc2nc(=O)[nH]nc2C)cc([N+](=O)[O-])c1O`: the AC50 is 22.1 µM.

In the case of `CC(C)Cn1nc(NC(=O)C2CCCO2)c2cc3ccccc3nc21` (configuration not stated), the AC50 is > 30 µM (inactive).

As for `COc1ccc(Cn2nnc(C(=O)Nc3ccc(F)cc3)c2N)cc1`, the AC50 is > 30 µM (inactive).

On to `CNS(=O)(=O)c1cccc(C(=O)OCC(=O)Nc2ccc(Cl)cn2)c1`, for which the AC50 is 6.77 µM.

For the compound `O=C(N/N=C/c1ccccn1)c1cccc(NC(=O)c2ccccc2Cl)c1`, the AC50 was 15.9 µM.

Take `Cc1cc(O)c2c(-c3ccccc3)cc(=O)oc2c1`: the AC50 is > 30 µM (inactive).

In the case of `CNC(=O)c1ccc(NC(=O)C2CCN(c3ncnc4sc(C)c(C)c34)CC2)cc1`, the AC50 is > 30 µM (inactive).

Turning to `COc1cc(/C=N/NC(=O)c2cccc(C(=O)N/N=C/c3ccc(O)c(OC)c3)n2)ccc1O`, the AC50 was > 30 µM (inactive).

With `CC1CCCCC1NC(=O)C(=O)NCC1CCCO1` (configuration not stated), the AC50 was > 30 µM (inactive).

Regarding `COc1ccc(S(=O)(=O)N[C@@H](CC(C)C)C(=O)O)cc1`, the AC50 was > 30 µM (inactive).

Take `COc1ccc(CCNC2=C(Cl)C(=O)N(Cc3ccccc3)C2=O)cc1OC`: the AC50 was > 30 µM (inactive).

`CCOC(=O)c1cc(C(=O)OCC)c2cc(Br)ccc2n1`: the AC50 is > 30 µM (inactive).

Turning to `CC(C)(C)NC(=O)/C(=C\C=C\c1ccccc1)NC(=O)c1ccc([N+](=O)[O-])cc1`, the AC50 was > 30 µM (inactive).

Turning to `N#Cc1c2ccc(O)cc2n2ccccc12`, the AC50 was 3.56 µM.

Consider `CCNC(=S)NNC(=O)c1cccs1`, for which the AC50 is > 30 µM (inactive).

Consider `Cc1nc2ccc(-c3ccccc3)cc2o1`, for which the AC50 is > 30 µM (inactive).

As to `CC(C)CC(=O)Nc1ccc(-c2cn3cccnc3n2)cc1`, the AC50 is > 30 µM (inactive).

On to `O=C(O)c1ccc(N=Cc2c(O)ccc3oc4c(c23)CCCC4)cc1`, for which the AC50 is > 30 µM (inactive).

With `CC(=O)c1cccc(-c2ccc3c(=O)[nH]c(Nc4ccccc4)cc3c2)c1`, the AC50 was > 30 µM (inactive).

As to `CCOc1ccc(/C=C/C2=Cc3c(sc(NC(=O)CSc4n[nH]c(N)n4)c3C#N)C(C)(C)C2)cc1`, the AC50 is > 30 µM (inactive).

As for `CCOc1ccc(C(=O)c2cnc3ccccc3c2N2CCN(CC)CC2)cc1`, the AC50 was > 30 µM (inactive).

Regarding `CC1CCN(Cc2c(C(=O)N/N=C/c3ccc(C(F)(F)F)cc3)nnn2-c2nonc2N)CC1`, the AC50 was > 30 µM (inactive).

`Nc1nonc1-c1nc2ccccc2n1CCC(=O)O`: the AC50 was 16.4 µM.

As for `COC(=O)c1cc(OC)nc2ccc(Br)cc12`, the AC50 was > 30 µM (inactive).

For the compound `CN1CCCN(C(=O)CC(c2ccccc2)c2ccccc2)CC1`, the AC50 is > 30 µM (inactive).

For the compound `CC1=C(C(=O)OCc2ccc3c(c2)OCO3)C(c2cccc([N+](=O)[O-])c2)NC(=O)N1` (configuration not stated), the AC50 is 3.28 µM.

For `Cc1cc(N2CCN(c3ccccc3)CC2)n2c(n1)nc1ccccc12`, the AC50 is 4.33 µM.

With `CCc1ccc(C2CC(c3ccccc3Cl)Nc3nc(N)nn32)cc1` (configuration not stated), the AC50 is > 30 µM (inactive).

As to `Cc1ccc(NC(=O)CSc2nnc(-c3ccncc3)s2)cc1`, the AC50 was > 30 µM (inactive).

Turning to `Nc1nc(Nc2cccc(F)c2)nc(NCc2ccco2)c1[N+](=O)[O-]`, the AC50 is 4.08 µM.

As to `Cc1ccccc1/C=N/Nc1nc2ccccc2[nH]1`, the AC50 is > 30 µM (inactive).

For `Cc1c(O)ccc2c3c(c(=O)oc12)CCC(C)C3` (configuration not stated), the AC50 is > 30 µM (inactive).

With `c1ccc2c(CCNc3ncnc4nc[nH]c34)c[nH]c2c1`, the AC50 was 23.1 µM.

With `N#CC1=C(SCc2ccccc2)NC(=O)CC1c1ccco1` (configuration not stated), the AC50 was > 30 µM (inactive).

With `O=C(CSc1nnc(-c2ccc(O)cc2)o1)Nc1ccc2c(c1)OCCO2`, the AC50 is 0.463 µM.

`Cc1sc2nc(SCC(=O)Nc3ccc(S(=O)(=O)NCCCC(=O)O)cc3)[nH]c(=O)c2c1C`: the AC50 is 7.13 µM.

As for `Cc1cccc(NC(=O)CSCC(=O)OCc2ccccn2)c1`, the AC50 was > 30 µM (inactive).

For `O=C(CSc1ccccc1)Nc1ccc2c(c1)C(=O)NC2=O`, the AC50 is 6.21 µM.

Turning to `CCc1ccc(C2CC(c3cccc(Cl)c3)n3nc(N)nc3N2)cc1` (configuration not stated), the AC50 is > 30 µM (inactive).

Take `CCCCCCCCCCCCCCCC[N+](C)(C)CC`: the AC50 was > 30 µM (inactive).

In the case of `Cc1c2c(n3c(nc4ccccc43)c1C#N)N(CCN(C)C)CC2`, the AC50 is 21.7 µM.

On to `O=C(Oc1cccc([N+](=O)[O-])c1)N1CCCCC1`, for which the AC50 was > 30 µM (inactive).

Turning to `NC(=O)CSc1nc(C2CC2)nc2sc3c(c12)CCCC3`, the AC50 is > 30 µM (inactive).

With `CCOc1cc2c(C#N)c(N3CCCC3)nc(N)c2c(N)n1`, the AC50 was > 30 µM (inactive).

Take `Nc1cccc(C(=O)O)c1`: the AC50 was > 30 µM (inactive).
